Results from patent publication US20230000808A1, “COMPOSITIONS AND METHODS EXCLUDING OR WITH REDUCED GLUTAMINE FOR THE TREATMENT OF HEMOGLOBINOPATHIES AND THALASSEMIAS” (AXCELLA HEALTH INC., priority 2019, published 2023).

Legend:
Type in all cases: cell-based, human
[1] = system: whole blood from healthy controls; test: ROS (DCF fluorescence) in whole blood of healthy control donors, H2O2-induced; settings: healthy control donors treated with H2O2; dose-responsive
Description: Whole blood samples were appropriately diluted in Ca^2+- and Mg^2+-free Dulbecco's phosphate buffered saline (DPBS, Life Technologies) and the concentration of erythrocytes (RBC/mL) was measured on a Cellometer K2 Fluorescent Viability Cell Counter according to the manufacturer's RBC/AOPI protocol (Nexcelom Biosciences).
Cells were then diluted to 1×10^6 RBC/mL into either prewarmed 37° C. […] 2′-7′-dichlorofluorescin diacetate (DCF, Millipore Sigma), 20 mM in dimethyl sulfoxide (DMSO, Fisher) were added to a working concentration of 100 μM. Cells were incubated with dye for 15 minutes at 37° C., 5% CO2 in a tissue culture incubator, washed once, and resuspended in the 0.9 volumes of the same prewarmed 37° C. buffer with 5 minute spins at 500×g, accel/decal=5 in a swing arm centrifuge (Beckman Coulter). […] Where possible due to solubility constrains, pH-7.4-adjusted stock solutions of amino acids were used. Wells were mixed by pipetting and plates incubated at 37° C., 5% CO2 in a tissue culture incubator for 30 minutes. Optionally, 40 mM H2O2 (Millipore Sigma) freshly prepared in the same buffer was added to bring the concentration to 2 mM, wells mixed by pipetting, and plates were incubated an additional 30, 60, 120, or 240 minutes before fluorescence measurement of ROS signal on a Synergy H4 (BioTek) microplate reader with excitation=488 nm and emission=530 nm, and gain either set to autogain, 75, or 100.

[2] = system: HLMVEC; test: META-rank score, composite of VCAM1, ICAM1 and IL6 in the HLMVEC model; settings: HLMVEC + TNF-α; lower score = more optimal; 20x HMDB / 5 mM
Description: The ability of single amino acids and combinations to simultaneously impact these phenotypes was measured by a META-rank score (Tables 17 and 18). META-rank score is a composite measure that considers the optimal impact on all 3 phenotypes (e.g. decrease VCAM1, ICAM1, and IL6) in the HLMVEC model.

[3] = system: HLMVECs; test: Mitochondrial stress test, oxygen consumption rate in HLMVEC/TNF-α model (Seahorse); settings: for Maximal respiration (OCR) relative to TNF Control, Mean % Change: HLMVEC/TNF-α model, 24 h, Seahorse
Description: Cells were incubated at 37° C., 5% CO2 in a humidified incubator. Cells were passaged at least 1-2 times in the complete growth medium every 2-3 days until ready to plate for cell culture studies. Once ready for experiment, HLMVECs were seeded at a density of 6K cells per well of the 96 well optical microplates (Thermofisher) in the complete growth medium described above and the plated cells were incubated for 24 hours at 37° C. in a humidified incubator with 5% CO2. […] The values are published in the Human Metabolome Database (Wishart D S, et al., Nucleic Acids Res. 2007 January; 35:[…]-6) which is hereby incorporated by reference in its entirety. The medium was also supplemented with growth factors & antibiotics from EGM2-MV kit (Lonza) except the kit-provided FBS which was substituted with dialyzed FBS (Hyclone). […] Using the Agilent Seahorse XF Cell Mito Stress Test Kit (103015-100), parameters of mitochondrial function were studied by directly measuring the oxygen consumption rate (OCR) of HLMVECs on the Seahorse Flux Analyzer (Agilent Technologies) following the manufacturer's recommended protocol and prescribed controls in the kit. The co-treatment cell culture medium after 24 h incubation was removed & aliquoted for adhesion & inflammation biomarker analyses as described above and the HLMVECs in the 96-well plate were further incubated at 37° C. in a non-CO2 incubator for 45 minutes to 1 hour in the pre-warmed Seahorse assay medium supplemented with 10 mM glucose and 1 mM pyruvate but without 2 mM L-glutamine to allow unambiguous evaluation of amino acid combinations in the study. Oxygen consumption was measured at the end of incubation by the Seahorse Flux Analyzer. Four replicates for each treatment were processed for Seahorse studies. Mean percent change in maximal respiration is reported. Statistical analysis was done using one-way ANOVA two sample t-test.

[4] = system: MCP-1; test: MCP-1 in HLMVEC/TNF-α model (ELISA); settings: for MCP-1 expression relative to TNF Control, Mean % Change: 20×HMDB amino acids, 24 h co-treatment
Description: (§1) Cells were incubated at 37° C., 5% CO2 in a humidified incubator. Cells were passaged at least 1-2 times in the complete growth medium every 2-3 days until ready to plate for cell culture studies. Once ready for experiment, HLMVECs were seeded at a density of 6K cells per well of the 96 well optical microplates (Thermofisher) in the complete growth medium described above and the plated cells were incubated for 24 hours at 37° C. in a humidified incubator with 5% CO2. […] The values are published in the Human Metabolome Database (Wishart D S, et al., Nucleic Acids Res. 2007 January; 35:[…]-6) which is hereby incorporated by reference in its entirety. The medium was also supplemented with growth factors & antibiotics from EGM2-MV kit (Lonza) except the kit-provided FBS which was substituted with dialyzed FBS (Hyclone). […] Human MCP-1 was measured by ELISA (Human […] DuoSet ELISA, R&D Systems) at 1/70 dilution in 1× Reagent Diluent (Reagent Ancillary Kit 2, R&D Systems). Samples were run in triplicates. […] Samples were run in triplicates. Mean percent change in cytokine levels relative to vehicle are reported herein. Statistical analysis was done using two sample t-test.

[5] = system: IL-6; test: IL-6 in HLMVEC/TNF-α model (ELISA); settings: for IL-6 expression relative to TNF Control, Mean % Change: HLMVEC/TNF-α model, 24 h, ELISA
Description: as §1

[6] = system: sVCAM-1; test: Soluble VCAM-1 in HLMVEC/TNF-α model (Luminex); settings: for sVCAM-1 expression relative to TNF Control, Mean % Change: 20×HMDB amino acids, 24 h co-treatment
Description: Cells were incubated at 37° C., 5% CO2 in a humidified incubator. Cells were passaged at least 1-2 times in the complete growth medium every 2-3 days until ready to plate for cell culture studies. Once ready for experiment, HLMVECs were seeded at a density of 6K cells per well of the 96 well optical microplates (Thermofisher) in the complete growth medium described above and the plated cells were incubated for 24 hours at 37° C. in a humidified incubator with 5% CO2. […] The values are published in the Human Metabolome Database (Wishart D S, et al., Nucleic Acids Res. 2007 January; 35:D521-6) which is hereby incorporated by reference in its entirety. The medium was also supplemented with growth factors & antibiotics from EGM2-MV kit (Lonza) except the kit-provided FBS which was substituted with dialyzed FBS (Hyclone). […]). […] were run in duplicate and data was normalized to corresponding TNF-α control for respective treatments as specified in the tables. Mean percent change in level of adhesion markers are reported herein. Statistical analysis was done using two sample t-test.

Row | SMILES | ROS measured in whole blood [1] | Meta-Rank (Table 18) [2] | Metarank (Table 17) [2] | Maximal respiration (OCR) relative to TNF Control, Mean % Change ([3]; TNF Conc 0.5 ng/mL) | Maximal respiration (OCR) relative to TNF Control, Mean % Change ([3]; TNF Conc 25 ng/mL) | oxygen consumption ([3]; either TNF-α concentration) | oxygen consumption ([3]; higher TNF-α concentration of 25 ng/mL) | MCP-1 expression relative to TNF Control, Mean % Change ([4]; TNF Conc 0.5 ng/mL) | MCP-1 expression relative to TNF Control, Mean % Change ([4]; TNF Conc 25 ng/mL) | MCP-1 level reduction relative to the controls ([4]; both TNF-α treatment groups) | IL-6 expression relative to TNF Control, Mean % Change ([5]; TNF Conc 0.5 ng/mL) | IL-6 expression relative to TNF Control, Mean % Change ([5]; TNF Conc 25 ng/mL) | lowering IL-6 ([5]; either TNF-α group) | sVCAM-1 expression relative to TNF Control, Mean % Change ([6]; TNF Conc 0.5 ng/mL) | sVCAM-1 expression relative to TNF Control, Mean % Change ([6]; TNF Conc 25 ng/mL) | increase in sVCAM-1 level relative to control ([6]; both TNF-α groups)
1 | CC(=O)N[C@@H](CS)C(=O)O [N-Acetyl Cysteine, N-acetylcysteine] | reduced | 4 | 6 |  |  |  |  |  |  |  |  |  |  |  |  | 
2 | NC(=O)CC[C@H](N)C(=O)O [Glutamine, L-glutamine] |  |  |  | −47.7527% | −27.9927% | did not support oxygen consumption | appeared to get worse | −11.673% | −12.1569% | ~12% | −1.168% | 14.3622% | largely ineffective | 566.0015% | 755.2941% | > 570%
